Reference: PMC9088016, “Synthesis and biological evaluation of phosphatidylcholines with cinnamic and 3-methoxycinnamic acids with potent antiproliferative activity” (RSC Advances, 2018)
Read-outs that look alike come from different tables or passages of the source.

Columns and labels:
BALB/3T3 cells = assay: Antiproliferative assay in vitro (SRB), 72 h; format: cell-based, mouse; conditions: 72 h exposure, mean ± SD
Description: (§1) Biophenotypic B myelomonocytic leukaemia MV4-11, human lung carcinoma A549, human breast carcinoma MCF-7, human colon carcinoma LoVo, its drug resistant line LoVo/DX, liver carcinoma HepG2, and normal mouse fibroblast BALB/3T3 cells were obtained from the American Type Culture Collection (Rockville, Maryland, USA). All lines are being maintained at the Institute of Immunology and Experimental Therapy, Wrocław, Poland. All cell lines were grown in a humid atmosphere at 37 °C with 5% CO2 and were cultured in media according to the method described before.[18]
(§2) Prior to usage, the compounds were dissolved in DMSO to the concentration of 25 or 50 mM, and subsequently diluted in the culture medium to reach the required concentrations (ranging from 5 to 625 μM).
(§3) Twenty-four hours before addition of the tested compounds, the cells were plated in 96-well plates (Sarstedt, USA) at a density of 10^4 cells per well. All cell lines were exposed to each tested phosphatidylcholines for 72 h. Cells were also exposed to the commercially available drugs cisplatin and doxorubicin. Cell lines were also exposed to the solvent used for the tested compounds (DMSO) at concentrations corresponding to those present in the tested agents' dilutions. For adherent cells, a SRB assay was performed and an MTT assay was performed for leukaemia cells.
(§4) The cytotoxicity assay was performed after 72 h exposure of the cultured cells to varying concentrations (from 5 to 625 μM) of the tested agents. The cells attached to the plastic were fixed in situ by gently adding 50 μL per well of cold 50% TCA (trichloroacetic acid). The plates were incubated at 4 °C for 1 h and then washed five times with tap water. The background optical density was measured in the wells filled with culture medium, without the cells. The cellular material fixed with TCA was stained with 50 μL of 0.4% sulforhodamine B (SRB) dissolved in 1% acetic acid for 30 min. Unbound dye was removed by rinsing (4×) with 1% acetic acid. The protein-bound dye was extracted with 10 mM unbuffered Tris base for determination of the optical density (at 540 nm) in a computer-interfaced 96-well microtiter plate reader Multiskan RC photometer (Labsystems, Helsinki, Finland). Each compound in the given concentration was tested in triplicate in each experiment, which was repeated 3–5 times.
(§5) The results of the cytotoxic activity in vitro were expressed as IC50—the concentration of compound (in μM) that inhibits the proliferation rate of the tumor cells by 50% as compared to control untreated cells.

LoVo/DX cells = assay: Antiproliferative assay in vitro (SRB), 72 h; format: cell-based, human; conditions: for Resistance index (RI): doxorubicin-resistant LoVo/DX cell line versus LoVo; for IC50: doxorubicin-resistant colon cancer cells, SRB, 72 h exposure, mean ± SD
Description: as §1, §2, §3, §4, §5

MCF-7 cells = assay: Antiproliferative assay in vitro (SRB), 72 h; format: cell-based, human; conditions: 72 h exposure, mean ± SD
Description: as §1, §2, §3, §4, §5

LoVo cells = assay: Antiproliferative assay in vitro (SRB), 72 h; format: cell-based, human; conditions: colon cancer cells, 72 h exposure, mean ± SD
Description: as §1, §2, §3, §4, §5

HepG2 cells = assay: Antiproliferative assay in vitro (SRB), 72 h; format: cell-based, human; conditions: 72 h exposure, mean ± SD
Description: as §1, §2, §3, §4, §5

A549 cells = assay: Antiproliferative assay in vitro (SRB), 72 h; format: cell-based, human; conditions: 72 h exposure, mean ± SD, read-out: IC50 A-549
Description: as §1, §2, §3, §4, §5

MV4-11 cells [1] = assay: Antiproliferative assay in vitro (MTT), 72 h; format: cell-based, human; conditions: leukaemia cells; for IC50: MTT, 72 h exposure, mean ± SD
Description: as §1, §2, §3
This technique was applied for the cytotoxicity screening against leukemia cells. An assay was performed after 72 h exposure to varying concentrations (from 5 to 625 μM) of the tested agents. For the last 3–4 hours of incubation. 20 μL of MTT solution was added to each well (MTT: 3-(4,5-dimethylthiazol-2-yl)-2,5-diphenyl tetrazolium bromide; stock solution: 5 mg mL^−1, Sigma, Germany). The mitochondria of viable cells reduce the pale yellow MTT to a navy blue formazan: the more viable cells are present in a well, the more MTT will be reduced to formazan. When the incubation time was completed, 80 μL of the lysing mixture was added to each well (lysing mixture: 225 mL dimethylformamide, 67.5 g sodium dodecyl sulphate, and 275 mL of distilled water). After 24 h, when formazan crystals had been dissolved, the optical densities of the samples were read with a Multiskan RC photometer at 570 nm wavelength. Each compound in a given concentration was tested in triplicate in each experiment, which was repeated 3–5 times.
as §5

MV4-11 cells [2] = assay: Cell cycle analysis (propidium iodide, flow cytometry); format: cell-based, human; conditions: 50 μM, 72 h
Description: For cell cycle analysis, the cells MV4-11 were treated with the tested compound 5a dissolved in DMSO at a concentration of 50 μM. The cells were treated also only by the DMSO for comparison. After 72 h of incubation, the cells (1 × 10^6) were trypsinized and rinsed with cold PBS. Washed cell pellets were fixed for 24 h in 70% ethanol at −20 °C. After fixation, the cells were washed twice with PBS once again and resuspended in PBS. Next, RNAse (8 μg mL^−1, Fermentas, Germany) was added and the cells were incubated for 1 h at 37 °C. The cells were then stained with propidium iodide (50 μg mL^−1, Sigma Aldrich, Germany) at 4 °C for 30 min and the cellular DNA content was analyzed by flow cytometry using a BD LSRFortessa cytometer (BD Bioscience, San Jose, USA). Compounds at each concentration were tested at least three times independently. The control in the assay was the cells exposed to DMSO at a concentration of 0.05%. Data were analyzed using ModFit 3.2 software (Verity Software, USA).

MV4-11 cells [3] = assay: Determination of the mitochondrial membrane potential (JC-1, flow cytometry); format: cell-based, human; conditions: 50 μM, 72 h
Description: The loss of mitochondrial membrane potential was estimated using the fluorescent probe JC-1 (Sigma Aldrich, Germany). […] The cells were exposed to the tested compound 5a at a concentration of 50 μM. The MV4-11 cells (5 × 10^5) were washed in phosphate-buffered saline (PBS) containing 2% FBS. The pelleted cells were resuspended in 100 μL of the warm cultured medium with the addition of 10 μL of JC-1 (the final concentration of JC-1 was 3 μg mL^−1) and were then incubated for 30 min at 37 °C. Next, the cells were washed with 1 mL of PBS with 2% FBS and resuspended in 300 μL of PBS with 2% FBS. The mitochondrial membrane potential was analyzed by flow cytometry using BD LSRFortessa cytometry. Compounds at each concentration were tested at least three times independently. The control in the assay was the cells exposed to DMSO at a concentrations of 0.05%. Data were analyzed using Flowing software 2.5.1.

MV4-11 cells [4] = assay: Cell death determination by Annexin V and PI staining; format: cell-based, human; conditions: 50 μM, 72 h
Description: The MV4-11 cells were exposed to the test compound 5a at a concentration of 50 μM for 72 h. After incubation, the cells (2 × 10^5) were washed twice with PBS. APC-Annexin V (BD Pharmingen) was dissolved to the concentration of 1 mg mL^−1 in a binding buffer (HEPES buffer: 10 mM HEPES/NaOH), pH 7.4, 150 mM NaCl, 5 mM KCl, 1 mM MgCl2, 1.8 mM CaCl2, (IIET, Poland) and the cells were suspended in 200 μL of this 1 mg mL^−1 solution (freshly prepared each time). After the incubation in the dark (15 min) at room temperature, the solution (1 mg mL^−1) of propidium iodide (PI) was added prior to the analysis to give a final concentration of 0.1 mg mL^−1. Data acquisition was performed by flow cytometry using a BD LSRFortessa cytometer. Compound 5a was tested at least three times independently. The control in the assay was the cells exposed to DMSO at a concentration of 0.05%. Results were analyzed using Flowing software 2.5.1. […] Double-negative cells were live cells, PI+/Annexin V+ were late apoptotic or necrotic cells, and PI-/Annexin V+ were early apoptotic.

[5] = Mus musculus, BALB/3T3, normal mice fibroblast cells
[6] = Homo sapiens, MCF7, breast cancer cells
[7] = Homo sapiens, HepG2, liver cancer cells
[8] = Homo sapiens, A549, lung cancer cells

Compound	Fold lower IC50 than free cinnamic / 3-methoxycinnamic acid (MV4-11 cells [1]; versus corresponding free acid)	IC50 (LoVo/DX cells; Homo sapiens, LoVo/DX)	IC50 (MCF-7 cells; [6])	IC50 (LoVo cells; Homo sapiens, LoVo)	IC50 (HepG2 cells; [7])	IC50 (A549 cells; [8])	IC50 (MV4-11 cells [1]; Homo sapiens, MV4-11)	IC50 (BALB/3T3 cells; normal mice fibroblast cells)	Resistance index (RI) (LoVo/DX cells)	Ability to overcome drug resistance (LoVo/DX cells; doxorubicin-resistant LoVo/DX cell line, judged from RI)	IC50 (LoVo/DX cells)	IC50 (MCF-7 cells; breast cancer cells)	IC50 (LoVo cells)	IC50 (HepG2 cells; liver cancer cells)	IC50 (A549 cells; lung cancer cells)	IC50 (MV4-11 cells [1])	IC50 (BALB/3T3 cells; [5])	Effect on cell cycle (MV4-11 cells [2])	Cells having a significantly lowered mitochondrial membrane potential (Ψm) (MV4-11 cells [3])	Induction of early apoptotic, apoptotic or necrotic cell death (MV4-11 cells [4])
CCCCCCCCCCCCCCCC(=O)OC[C@H](COP(=O)([O-])OCC[N+](C)(C)C)OC(=O)C=Cc1cccc(OC)c1 [Compound 5b, 1-Palmitoyl-2-3-methoxycinnamoyl-sn-glycero-3-phosphocholine]	–	69.9 ± 6.3 µM	224 ± 9.5 µM	70.4 ± 5.4 µM	295 ± 11.4 µM	193 ± 27.4 µM	83.2 ± 4 µM	–	0.99	–	–	–	–	–	–	–	257 ± 52.4 µM	–	–	–
N.N.[Cl][Pt][Cl] [Cisplatin, cisplatin, reference compound]	–	–	–	–	–	–	–	4.2 ± 1.1 µM	–	–	3.17 ± 0.2 µM	8.1 ± 0.03 µM	2.56 ± 0.4 µM	2.38 ± 0.64 µM	8.6 ± 0.7 µM	1.3 ± 0.47 µM	–	–	–	–
COc1cccc(C=CC(=O)O)c1 [Compound 1b, 3-methoxycinnamic acid]	–	> 625 µM	420 ± 56.2 µM	233 ± 15.5 µM	> 625 µM	> 625 µM	339 ± 111 µM	–	–	–	–	–	–	–	–	–	506 ± 67.7 µM	–	–	–
CCCCCCCCCCCCCCCC(=O)OC[C@H](COP(=O)([O-])OCC[N+](C)(C)C)OC(=O)C=Cc1ccccc1 [Compound 5a, 1-Palmitoyl-2-cinnamoyl-sn-glycero-3-phosphocholine]	–	56.3 ± 0.8 µM	64.6 ± 3.4 µM	52.3 ± 5 µM	228 ± 30.6 µM	56.3 ± 0.4 µM	43.2 ± 9.9 µM	–	1.08	–	–	–	–	–	–	–	114 ± 36.6 µM	arrested cell cycle in the G2/M phase	about 45%	lack of induction

Further lines, with some results ahead:

Fold lower IC50 than free cinnamic / 3-methoxycinnamic acid (MV4-11 cells [1]; versus corresponding free acid)	IC50 (LoVo/DX cells; Homo sapiens, LoVo/DX)	IC50 (MCF-7 cells; [6])	IC50 (LoVo cells; Homo sapiens, LoVo)	IC50 (HepG2 cells; [7])	IC50 (A549 cells; [8])	IC50 (MV4-11 cells [1]; Homo sapiens, MV4-11)	Compound	IC50 (BALB/3T3 cells; normal mice fibroblast cells)	Resistance index (RI) (LoVo/DX cells)	Ability to overcome drug resistance (LoVo/DX cells; doxorubicin-resistant LoVo/DX cell line, judged from RI)	IC50 (LoVo/DX cells)	IC50 (MCF-7 cells; breast cancer cells)	IC50 (LoVo cells)	IC50 (HepG2 cells; liver cancer cells)	IC50 (A549 cells; lung cancer cells)	IC50 (MV4-11 cells [1])	IC50 (BALB/3T3 cells; [5])	Effect on cell cycle (MV4-11 cells [2])	Cells having a significantly lowered mitochondrial membrane potential (Ψm) (MV4-11 cells [3])	Induction of early apoptotic, apoptotic or necrotic cell death (MV4-11 cells [4])
8 fold	–	–	–	–	–	–	1-Cinnamoyl-2-hydroxy-sn-glycero-3-phosphocholine [Compound 9a]	160 ± 45.7 µM	2.13	moderate ability to overcome drug resistance	238.2 ± 2.3 µM	104 ± 4.4 µM	112 ± 26.3 µM	290 ± 19.4 µM	287.1 ± 2 µM	44.3 ± 5.1 µM	–	–	–	–
–	66 ± 8.7 µM	127 ± 28.3 µM	63 ± 14.4 µM	283 ± 5.2 µM	61.9 ± 3.7 µM	88.7 ± 28.9 µM	CCCCCCCCCCCCCCCC(=O)O[C@H](COC(=O)C=Cc1ccccc1)COP(=O)([O-])OCC[N+](C)(C)C [Compound 10a, 1-Cinnamoyl-2-palmitoyl-sn-glycero-3-phosphocholine]	–	1.05	–	–	–	–	–	–	–	208 ± 30.7 µM	–	–	–
